Measured values taken from patent publication US20240148744A1 (Celgene Corporation, priority 2021, published 2024).

How the values were obtained:
[1] = system: Adult and microfilariae B. pahangi; assay: In vitro parasite motility assay, B. pahangi adult worms and microfilariae; assay type: cell-based, Brugia pahangi
[2] = system: Adult and microfilariae B. malayi; assay: In vitro parasite motility assay, B. malayi adult worms and microfilariae; assay type: cell-based; conditions: Brugia malayi, read-out: B. malayi Activity class
[3] = system: Dirofilaria immitis; assay: Heartworm screen Dirofilaria immitis (stage DiMF/DiL4 not specified in the tables); assay type: cell-based; conditions: read-out: D. immitis Activity class
[4] = system: Onchocerca gutturosa adult male worms; assay: Onchocerca gutturosa in vitro screening model: adult worm motility score and MTT/formazan viability; assay type: cell-based; conditions: read-out: O. gutt Activity class

| Compound | B. phange Activity class ([1]; activity against microfilaria (level D)) | IC50 [2] | IC50 [3] | IC50 [4] | B. phange Activity class ([1]; activity against adult filaria (level E)) |
| --- | --- | --- | --- | --- | --- |
| Cn1cc(S(=O)(=O)Nc2cccc3cccnc23)cn1 [Compound 268, 1-methyl-N-(quinolin-8-yl)-1H-pyrazole-4-sulfonamide] | D (activity against microfilaria at compound concentrations below 1 μM (activity level D)) | 500 to 5000 nM |  |  |  |
| Cc1cccnc1S(=O)(=O)Nc1cccc2cc(N3CCOCC3)cnc12 [Compound 21, 3-methyl-N-(3-morpho-linoquinolin-8-yl)pyridine-2-sulfonamide] |  |  | 500 to 5000 nM | < 200 nM |  |
| O=S(=O)(Nc1cccc2cccnc12)c1ccc(-c2ccccc2)nc1 [Compound 189, 6-phenyl-N-(quinolin-8-yl)pyridine-3-sulfonamide] |  |  | 500 to 5000 nM | 200 to 500 nM |  |
| O=S(=O)(Nc1cccc2cccnc12)c1ccccn1 [Compound 280, N-(quinolin-8-yl)pyridine-2-sulfonamide] |  |  | 200 to 500 nM | 500 to 5000 nM |  |
| O=S(=O)(Nc1cccc2cccnc12)c1cnccn1 [Compound 271, N-(quinolin-8-yl)pyrazine-2-sulfonamide] |  |  | 500 to 5000 nM | < 200 nM |  |
| Cc1ccc(S(=O)(=O)Nc2cccc3cccnc23)c(Cl)n1 [Compound 188, 2-chloro-6-methyl-N-(quinolin-8-yl)pyridine-3-sulfonamide] |  |  | 500 to 5000 nM | < 200 nM |  |
| Cc1cccnc1S(=O)(=O)Nc1cccc2cc(C3CC3)cnc12 [Compound 29, N-(3-cyclo-propylquin-olin-8-yl)-3-methylpyr-idine-2-sulfonamide] |  |  | 500 to 5000 nM | 500 to 5000 nM |  |
| CCn1ccnc1S(=O)(=O)Nc1c(OC)ccc2cccnc12 [Compound 84, 1-ethyl-N-(7-methoxyquin-olin-8-yl)-1H-imidazole-2-sulfonamide] |  |  | 200 to 500 nM | < 200 nM |  |
| Cc1ccc(S(=O)(=O)Nc2ccc(F)c3cccnc23)nc1 [Compound 126, N-(5-fluoro-quinolin-8-yl)-5-methylpyr-idine-2-sulfon-amide] |  |  | 200 to 500 nM | 500 to 5000 nM |  |
| Cc1ccc(S(=O)(=O)Nc2cccc3cccnc23)cn1 [Compound 157, 6-methyl-N-(quinolin-8-yl)pyridine-3-sulfonamide] |  |  | 500 to 5000 nM | 500 to 5000 nM |  |
| C[C@@H](C1CC1)n1ccnc1S(=O)(=O)Nc1cccc2cccnc12 [Compound 185, (S)-1-(1-cyclopropyl-ethyl)-N-(quinolin-8-yl)-1H-imidazole-2-sulfonamide] |  |  | 200 to 500 nM | < 200 nM |  |
| O=S(=O)(Nc1cccc2cccnc12)c1cc2ccccc2cn1 [Compound 270, N-(quinolin-8-yl)isoquinoline-3-sulfonamide] |  |  | 200 to 500 nM | < 200 nM |  |
| N#Cc1cccc(S(=O)(=O)Nc2ccc(F)c3cccnc23)c1 [Compound 72, 3-cyano-N-(5-fluoroquin-olin-8-yl)ben-zenesulfon-amide] |  |  | 500 to 5000 nM | < 200 nM |  |
| Nc1ncccc1S(=O)(=O)Nc1cccc2cccnc12 [Compound 151, 2-amino-N-(quinolin-8-yl)pyridine-3-sulfonamide] |  |  | 500 to 5000 nM | 500 to 5000 nM |  |
| Cc1cccnc1S(=O)(=O)Nc1c(OCC2CC2)ccc2cccnc12 [Compound 16, N-(7-(cyclo-propylmeth-oxy)quinolin-8-yl)-3-meth-ylpyridine-2-sulfonamide] |  |  | < 200 nM | 500 to 5000 nM |  |
| N#Cc1ccc(-c2cccc(S(=O)(=O)Nc3cccc4cccnc34)n2)cc1 [Compound 178, 6-(4-cyanophenyl)-N-(quinolin-8-yl)pyridine-2-sulfonamide] |  |  | 500 to 5000 nM | < 200 nM |  |
| CN(C)c1nccnc1S(=O)(=O)Nc1c(Cl)ccc2cccnc12 [Compound 76, N-(7-chloro-quinolin-8-yl)-3-(dimethyl-amino)pyr-azine-2-sulfonamide] |  |  | 500 to 5000 nM | 500 to 5000 nM |  |
| Cc1cccnc1S(=O)(=O)Nc1cccc2c(C3CC3)ccnc12 [Compound 27, N-(4-cyclo-propylquin-olin-8-yl)-3-methylpyr-idine-2-sulfonamide] |  |  | 500 to 5000 nM | 500 to 5000 nM |  |
| CCn1ccc(S(=O)(=O)Nc2cccc3cccnc23)n1 [Compound 193, 1-ethyl-N-(quinolin-8-yl)-1H-pyrazole-3-sulfonamide] |  |  | 500 to 5000 nM | 200 to 500 nM |  |
| CCn1ccnc1S(=O)(=O)Nc1cccc2cc(Cl)cnc12 [Compound 116, N-(3-chloro-quinolin-8-yl)-1-ethyl-1H-imidazole-2-sulfonamide] |  |  | 200 to 500 nM | 200 to 500 nM |  |
| Cc1cnc(C)c(S(=O)(=O)Nc2c(Cl)ccc3cccnc23)n1 [Compound 53, N-(7-chloro-quinolin-8-yl)-3,6-dimethyl-pyrazine-2-sulfonamide] |  |  | 500 to 5000 nM | 500 to 5000 nM |  |
| O=S(=O)(Nc1cccc2cccnc12)c1ccc(-c2ccc(F)cc2)nc1 [Compound 182, 6-(4-fluorophenyl)-N-(quinolin-8-yl)pyridine-3-sulfonamide] |  |  | 500 to 5000 nM | < 200 nM |  |
| O=S(=O)(Nc1cccc2cccnc12)c1cn[nH]c1 [Compound 267, N-(quinolin-8-yl)-1H-pyrazol-4-sulfonamide] |  | 500 to 5000 nM |  |  |  |
| CCn1ccnc1S(=O)(=O)Nc1c(C)ccc2cccnc12 [Compound 102, 1-ethyl-N-(7-methylquin-olin-8-yl)-1H-imidazole-2-sulfonamide] |  |  | 200 to 500 nM | < 200 nM |  |
| CCn1ccnc1S(=O)(=O)Nc1cccc2ccc(C)nc12 [Compound 106, 1-ethyl-N-(2-methylquin-olin-8-yl)-1H-imidazole-2-sulfonamide] |  |  | 200 to 500 nM | 500 to 5000 nM |  |
| O=S(=O)(Nc1cccc2cccnc12)c1cc(Cl)ccn1 [Compound 220, 4-chloro-N-(quinolin-8-yl)pyridine-2-sulfonamide] |  |  | < 200 nM | < 200 nM |  |
| O=S(=O)(Nc1cccc2cccnc12)c1ncccc1F [Compound 269, 3-fluoro-N-(quinolin-8-yl)pyridine-2-sulfonamide] |  |  | 500 to 5000 nM | < 200 nM | E (activity against adult filaria at compound concentrations below 1 μM (activity level E)) |
| Cc1cccnc1S(=O)(=O)Nc1cccc2c(-c3ccccc3)ccnc12 [Compound 30, 3-methyl-N-(4-phenyl-quinolin-8-yl)pyridine-2-sulfonamide] |  |  | 500 to 5000 nM | 500 to 5000 nM |  |
